# Results as given in patent publication US9296725B2, “Heterocyclyl pyrimidine analogues as TYK2 inhibitors” (Cellzome Limited, priority 2012, dated 2016).
# Read-outs that look alike come from different tables or passages of the source.
# Assays:
# JAK2 = biological target: T1, JAK2 (Homo sapiens, UniProt O60674); assay: Kinobeads assay, JAK2 (competition binding in mixed Molt4/Ramos cell lysate, dot blot detection); conditions: read-out: JAK2 Band (Kinobeads assay potency, IC50)
# T1 construct: endogenous in cells; host or cells: Molt4 (ATCC CRL-1582) and Ramos (ATCC CRL-1596), mixed lysate 1:2
# T1 sequence (O60674 whole entry): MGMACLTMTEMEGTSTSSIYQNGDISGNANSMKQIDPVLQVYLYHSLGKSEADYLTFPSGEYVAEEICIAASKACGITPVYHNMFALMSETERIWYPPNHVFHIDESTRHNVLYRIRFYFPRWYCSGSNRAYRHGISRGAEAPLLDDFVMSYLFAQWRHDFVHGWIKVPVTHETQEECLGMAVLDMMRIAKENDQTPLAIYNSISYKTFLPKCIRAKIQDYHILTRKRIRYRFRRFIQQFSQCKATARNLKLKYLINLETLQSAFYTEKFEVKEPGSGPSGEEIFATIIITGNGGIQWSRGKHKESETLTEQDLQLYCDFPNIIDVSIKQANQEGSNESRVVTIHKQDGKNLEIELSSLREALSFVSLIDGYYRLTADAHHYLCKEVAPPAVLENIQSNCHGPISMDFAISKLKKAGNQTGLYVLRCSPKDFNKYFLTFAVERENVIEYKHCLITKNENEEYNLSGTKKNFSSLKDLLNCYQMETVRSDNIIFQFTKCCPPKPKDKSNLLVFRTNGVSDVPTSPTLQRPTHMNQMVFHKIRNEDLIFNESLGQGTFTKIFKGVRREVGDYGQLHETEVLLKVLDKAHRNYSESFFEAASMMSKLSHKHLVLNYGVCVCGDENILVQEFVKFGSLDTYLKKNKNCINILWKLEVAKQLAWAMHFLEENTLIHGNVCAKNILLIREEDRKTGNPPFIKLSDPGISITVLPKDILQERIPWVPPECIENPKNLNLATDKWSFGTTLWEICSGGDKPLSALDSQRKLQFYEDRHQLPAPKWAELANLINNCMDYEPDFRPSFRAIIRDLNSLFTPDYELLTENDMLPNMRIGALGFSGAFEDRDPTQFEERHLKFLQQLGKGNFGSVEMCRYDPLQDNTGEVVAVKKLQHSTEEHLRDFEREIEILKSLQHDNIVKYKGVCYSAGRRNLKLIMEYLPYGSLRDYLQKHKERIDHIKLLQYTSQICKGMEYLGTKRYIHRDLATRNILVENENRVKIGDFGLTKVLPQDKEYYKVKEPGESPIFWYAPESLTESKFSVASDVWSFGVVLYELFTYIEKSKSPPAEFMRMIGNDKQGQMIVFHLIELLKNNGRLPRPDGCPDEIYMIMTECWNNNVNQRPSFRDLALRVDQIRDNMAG
# Protocol: (§1) The compounds of the present invention as described in the previous examples were tested in a Kinobeads™ assay as described for ZAP-70 (WO-A 2007/137867). Briefly, test compounds (at various concentrations) and the affinity matrix with the immobilized aminopyrido-pyrimidine ligand 24 were added to cell lysate aliquots and allowed to bind to the proteins in 10 the lysate sample. After the incubation time the beads with captured proteins were separated from the lysate. Bound proteins were then eluted and the presence of TYK2 and JAK2 was detected and quantified using specific antibodies in a dot blot procedure and the Odyssey infrared detection system. Dose response curves for individual kinases were generated and IC50 values calculated. Kinobeads™ assays have been previously described (WO-A 2007/137867; WO-A 2006/134056).
# (§2) The affinity matrix was washed two times with 15 mL of 1×DP buffer containing 0.2% NP40 (IGEPAL® CA-630, Sigma, #13021) and then resuspended in 1×DP buffer containing 0.2% NP40 (3% beads slurry). 5×DP buffer: 250 mM Tris-HCl pH 7.4, 25% Glycerol, 7.5 mM MgCl2, 750 mM NaCl, 5 mM Na3VO4; filter the 5×DP buffer through a 0.22 μm filter and store in aliquots at −80° C. The 5×DP buffer is diluted with H2O to 1×DP buffer containing 1 mM DTT and 25 mM NaF.
# (§3) Stock solutions of test compounds were prepared in DMSO. In a 96 well plate 30 μL solution of diluted test compounds at 5 mM in DMSO were prepared. Starting with this solution a 1:3 dilution series (9 steps) was prepared. For control experiments (no test compound) a buffer containing 2% DMSO was used.
# (§4) Molt4 cells (ATCC catalogue number CRL-1582) and Ramos cells (ATCC catalogue number CRL-1596) were grown in 1 L Spinner flasks (Integra Biosciences, #182101) in suspension in RPMI 1640 medium (Invitrogen, #21875-034) supplemented with 10% Fetal Bovine Serum (Invitrogen) at a density between 0.15×10^6 and 1.2×10^6 cells/mL. Cells were harvested by centrifugation, washed once with 1×PBS buffer (Invitrogen, #14190-094) and cell pellets were frozen in liquid nitrogen and subsequently stored at −80° C. Cells were homogenized in a Potter S homogenizer in lysis buffer: 50 mM Tris-HCl, 0.8% NP40, 5% glycerol, 150 mM NaCl, 1.5 mM MgCl2, 25 mM NaF, 1 mM sodium vanadate, 1 mM DTT, pH 7.5. One complete EDTA-free tablet (protease inhibitor cocktail, Roche Diagnostics, 1873580) per 25 mL buffer was added. The material was dounced 10 times using a mechanized POTTER S, transferred to 50 mL falcon tubes, incubated for 30 minutes on ice and spun down for 10 minutes at 20,000 g at 4° C. (10,000 rpm in Sorvall SLA600, precooled). The supernatant was transferred to an ultracentrifuge (UZ)-polycarbonate tube (Beckmann, 355654) and spun for 1 hour at 100.000 g at 4° C. (33.500 rpm in Ti50.2, precooled). The supernatant was transferred again to a fresh 50 mL falcon tube, the protein concentration was determined by a Bradford assay (BioRad) and samples containing 50 mg of protein per aliquot were prepared. The samples were immediately used for experiments or frozen in liquid nitrogen and stored frozen at −80° C.
# (§5) Cell lysate (approximately 50 mg protein per plate) was thawed in a water bath at room temperature and then stored on ice. To the thawed cell lysate 1×DP 0.8% NP40 buffer containing protease inhibitors (1 tablet for 25 mL buffer; EDTA-free protease inhibitor cocktail; Roche Diagnostics 1873580) was added in order to reach a final protein concentration of 10 mg/mL total protein. The diluted cell lysate was stored on ice. Mixed Molt4/Ramos lysate was prepared by combining one volume of Molt4 lysate and two volumes of Ramos lysate (ratio 1:2).
# (§6) To a 96 well filter plate (Multiscreen HTS, BV Filter Plates, Millipore #MSBVN1250) were added per well: 100 μL affinity matrix (3% beads slurry), 3 μL of compound solution, and 50 μL of diluted lysate. Plates were sealed and incubated for 3 hours in a cold room on a plate shaker (Heidolph tiramax 1000) at 750 rpm. […]
# TYK2 = biological target: T2, TYK2 (Homo sapiens, UniProt P29597); assay: Kinobeads assay, TYK2 (competition binding in mixed Molt4/Ramos cell lysate, dot blot detection)
# T2 construct: endogenous in cells; host or cells: Molt4 (ATCC CRL-1582) and Ramos (ATCC CRL-1596), mixed lysate 1:2
# T2 sequence (P29597 whole entry): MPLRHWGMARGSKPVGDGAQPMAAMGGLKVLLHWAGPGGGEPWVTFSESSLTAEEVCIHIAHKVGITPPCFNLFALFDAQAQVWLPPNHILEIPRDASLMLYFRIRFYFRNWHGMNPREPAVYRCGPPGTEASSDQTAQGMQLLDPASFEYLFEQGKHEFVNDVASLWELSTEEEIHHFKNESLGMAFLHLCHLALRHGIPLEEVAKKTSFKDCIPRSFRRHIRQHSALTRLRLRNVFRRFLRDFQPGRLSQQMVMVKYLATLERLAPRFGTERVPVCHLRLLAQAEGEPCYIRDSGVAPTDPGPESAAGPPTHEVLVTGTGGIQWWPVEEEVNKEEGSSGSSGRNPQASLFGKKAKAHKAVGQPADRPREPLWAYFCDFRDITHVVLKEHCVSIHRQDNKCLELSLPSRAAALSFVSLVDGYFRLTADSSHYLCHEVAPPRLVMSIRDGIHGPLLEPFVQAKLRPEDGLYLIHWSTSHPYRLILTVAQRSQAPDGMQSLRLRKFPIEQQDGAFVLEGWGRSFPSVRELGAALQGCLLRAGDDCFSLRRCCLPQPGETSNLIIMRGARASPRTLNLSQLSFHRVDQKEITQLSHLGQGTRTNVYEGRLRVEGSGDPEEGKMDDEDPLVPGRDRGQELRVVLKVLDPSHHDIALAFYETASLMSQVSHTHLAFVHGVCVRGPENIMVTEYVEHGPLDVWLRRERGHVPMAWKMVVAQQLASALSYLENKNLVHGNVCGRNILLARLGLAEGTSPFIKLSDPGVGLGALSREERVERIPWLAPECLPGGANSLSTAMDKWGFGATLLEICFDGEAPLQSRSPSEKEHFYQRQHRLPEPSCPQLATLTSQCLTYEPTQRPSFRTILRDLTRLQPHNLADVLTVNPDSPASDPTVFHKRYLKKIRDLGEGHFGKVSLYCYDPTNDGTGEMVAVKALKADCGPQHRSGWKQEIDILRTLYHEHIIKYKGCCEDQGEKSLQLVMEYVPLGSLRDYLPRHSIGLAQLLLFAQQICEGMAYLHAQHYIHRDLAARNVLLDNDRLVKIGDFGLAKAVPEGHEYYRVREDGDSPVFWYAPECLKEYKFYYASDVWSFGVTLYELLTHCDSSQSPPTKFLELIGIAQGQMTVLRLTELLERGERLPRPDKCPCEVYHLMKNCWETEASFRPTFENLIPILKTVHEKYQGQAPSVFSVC
# Protocol: as §1, §2, §3, §4, §5, §6
# [1] = Kinobeads assay, Molt4/Ramos lysate, read-out: TYK2 Band (Kinobeads assay potency, IC50)
SMILES,IC50 (JAK2),IC50 (TYK2; [1]),IC50 (TYK2; read-out: TYK2 IC50)
C[C@@H](O)Cn1cc(Nc2ncc(Cl)c(NCc3ccccc3F)n2)cn1 [Example I-256],1000 to 10000 nM,100 to 1000 nM,
O=C(O)Cn1cc(Nc2ncc(Cl)c(NCc3cc(F)cc(F)c3)n2)cn1 [Example I-168],100 to 1000 nM,100 to 1000 nM,
Cc1cnc(Nc2cnn(CC(=O)O)c2)nc1NCc1c(F)cc(F)cc1F [Example I-306],1000 to 10000 nM,10 to 100 nM,
CN(CC#N)C(=O)Cn1cc(Nc2ncc(Cl)c(NCc3ccccc3)n2)cn1 [Example I-238],1000 to 10000 nM,100 to 1000 nM,
CC(C)NC(=O)Cn1cc(Nc2nccc(NCc3c(Cl)ccc(F)c3Cl)n2)cn1 [Example I-119],> 10000 nM,10 to 100 nM,
OCCn1cc(Nc2ncc(Cl)c(NCc3cc(C(F)(F)F)ccc3F)n2)cn1 [Example I-281],100 to 1000 nM,10 to 100 nM,
CCC(CC)NC(=O)Cn1cc(Nc2ncc(F)c(NCc3c(F)cc(F)cc3F)n2)cn1 [Example I-58],> 10000 nM,10 to 100 nM,
Cn1cc(Nc2nccc(NCc3c(F)cccc3Cl)n2)cn1 [Example I-55],1000 to 10000 nM,10 to 100 nM,
COc1ccc(F)c(CNc2ccnc(Nc3cnn(CC(=O)NCCF)c3)n2)c1F [Example I-126],1000 to 10000 nM,10 to 100 nM,
CC(NC(=O)Cn1cc(Nc2nccc(NCc3c(F)cc(F)cc3F)n2)cn1)C1CCOC1 (stereo not shown) [Example I-105],> 10000 nM,10 to 100 nM,
NS(=O)(=O)c1ccc(CNc2nc(Nc3cnn(CC(=O)N4CCCCC4)c3)ncc2F)cc1 [Example I-30],> 10000 nM,10 to 100 nM,
CS(=O)(=O)Cn1cc(Nc2ncc(Cl)c(NCc3ccccc3)n2)cn1 [Example I-254],1000 to 10000 nM,100 to 1000 nM,
Cn1cc(Nc2ncc(F)c(NCc3c(F)cc(F)cc3F)n2)cn1 [Example I-374],1000 to 10000 nM,10 to 100 nM,
CNC(=O)Cn1cc(Nc2ncc(F)c(NCc3c(F)cccc3F)n2)cn1 [Example I-381],1000 to 10000 nM,10 to 100 nM,
CS(=O)(=O)c1ccc(F)cc1CNc1nc(Nc2cnn(CCO)c2)ncc1F [Example I-488],100 to 1000 nM,10 to 100 nM,
Cn1cc(Nc2ncc(Cl)c(NCc3c(F)ccc(F)c3F)n2)cn1 [Example I-340],100 to 1000 nM,10 to 100 nM,
CS(=O)(=O)c1cccc(CNc2nc(Nc3cnn(CCO)c3)ncc2Cl)c1 [Example I-363],1000 to 10000 nM,100 to 1000 nM,
Cn1cc(Nc2ncc(F)c(NCc3c(F)cc(S(N)(=O)=O)cc3F)n2)cn1 [Example I-379],1000 to 10000 nM,10 to 100 nM,
COc1ccc(F)c(CNc2ccnc(Nc3cnn(CC(=O)NC4CC4)c3)n2)c1F [Example I-125],1000 to 10000 nM,≤ 10 nM,< 100 nM
Cc1cnc(Nc2cnn(C)c2)nc1NCc1cc(F)cc(F)c1 [Example I-343],10 to 100 nM,10 to 100 nM,
O=C(Cn1cc(Nc2nccc(NCc3c(F)cccc3Cl)n2)cn1)NCC(F)F [Example I-141],1000 to 10000 nM,10 to 100 nM,
O=C(Cn1cc(Nc2ncc(F)c(NCc3c(F)cc(F)cc3F)n2)cn1)N1CCOCC1 [Example I-26],1000 to 10000 nM,≤ 10 nM,
C[C@@H](CO)NC(=O)Cn1cc(Nc2ncc(F)c(NCc3c(F)cc(F)cc3F)n2)cn1 [Example I-42],1000 to 10000 nM,≤ 10 nM,
CCOC(=O)Cn1cc(Nc2ncc(Cl)c(NCc3ccccc3)n2)cn1 [Example I-225],1000 to 10000 nM,100 to 1000 nM,

SMILES,IC50 (JAK2),IC50 (TYK2; [1]),IC50 (TYK2; read-out: TYK2 IC50)
CS(=O)(=O)c1cccc(CNc2nc(Nc3cnn(CC(=O)NC4CC4)c3)ncc2Cl)c1 [Example I-440],1000 to 10000 nM,10 to 100 nM,
CN(C)CCNC(=O)Cn1cc(Nc2ncc(Cl)c(NCc3cccc(OCC#N)c3)n2)cn1 [Example I-367],1000 to 10000 nM,100 to 1000 nM,
CNC(=O)Cn1cc(Nc2ncc(Cl)c(NCc3cc(C(F)(F)F)ccc3F)n2)cn1 [Example I-279],100 to 1000 nM,10 to 100 nM,
COc1ccc(F)c(CNc2nc(Nc3cnn(CC(N)=O)c3)ncc2Cl)c1F [Example I-375],100 to 1000 nM,10 to 100 nM,
O=C(O)Cn1cc(Nc2ncc(F)c(NCc3c(F)cc(F)cc3F)n2)cn1 [Example I-307],> 10000 nM,10 to 100 nM,
CNC(=O)Cn1cc(Nc2ncc(Cl)c(NCc3cccc(F)c3F)n2)cn1 [Example I-208],100 to 1000 nM,100 to 1000 nM,
CN(C)C(=O)Cn1cc(Nc2ncc(F)c(NCc3c(F)cc(F)cc3F)n2)cn1 [Example I-18],1000 to 10000 nM,10 to 100 nM,
CNC(=O)Cn1cc(Nc2ncc(Cl)c(NCc3cccc(OC)c3)n2)cn1 [Example I-243],1000 to 10000 nM,100 to 1000 nM,
Fc1cc(F)c(CNc2nc(Nc3cnn(CC(F)F)c3)ncc2F)c(F)c1 [Example I-464],> 10000 nM,100 to 1000 nM,
Cc1cnc(Nc2cnn(CC(=O)NC3CCOC3)c2)nc1NCc1c(F)cc(F)cc1F (stereo not shown) [Example I-37],100 to 1000 nM,10 to 100 nM,
Cc1cnc(Nc2cnn(CC(F)(F)F)c2)nc1NCc1cc(F)cc(F)c1F [Example I-351],1000 to 10000 nM,1000 to 10000 nM,
O=C(Cn1cc(Nc2ncc(F)c(NCc3cccc(OC(F)F)c3)n2)cn1)NC1CC1 [Example I-46],> 10000 nM,10 to 100 nM,
C[C@H](CO)NC(=O)Cn1cc(Nc2nccc(NCc3c(F)cc(F)cc3F)n2)cn1 [Example I-456],1000 to 10000 nM,10 to 100 nM,
CS(=O)(=O)c1ccc(F)cc1CNc1nc(Nc2cnn(CC(=O)NC3CC3)c2)ncc1Cl [Example I-74],100 to 1000 nM,10 to 100 nM,
COc1ccc(F)c(CNc2nc(Nc3cnn(CC(N)=O)c3)ncc2F)c1F [Example I-384],1000 to 10000 nM,10 to 100 nM,
Cn1cc(Nc2ncc(Cl)c(NCc3ncccc3F)n2)cn1 [Example I-260],1000 to 10000 nM,100 to 1000 nM,
Cn1cc(Nc2nccc(NCc3c(F)cncc3F)n2)cn1 [Example I-148],1000 to 10000 nM,10 to 100 nM,
O=C(Cn1cc(Nc2nccc(NCc3c(F)cc(F)cc3F)n2)cn1)NCC(F)(F)F [Example I-86],> 10000 nM,10 to 100 nM,
Cc1ccc(F)c(CNc2nc(Nc3cnn(CC(=O)N(C)C)c3)ncc2Cl)c1F [Example I-283],1000 to 10000 nM,10 to 100 nM,
CS(=O)(=O)c1ccc(F)c(CNc2nc(Nc3cnn(CC(N)=O)c3)ncc2Cl)c1 [Example I-100],100 to 1000 nM,10 to 100 nM,
CC(C)(CO)NC(=O)Cn1cc(Nc2nccc(NCc3c(F)cc(F)cc3F)n2)cn1 [Example I-460],1000 to 10000 nM,10 to 100 nM,
Cn1cc(Nc2ncc(F)c(NCc3c(Cl)ccc(Cl)c3F)n2)cn1 [Example I-457],100 to 1000 nM,10 to 100 nM,
Cn1cc(Nc2ncc(Cl)c(NCc3cc(F)cc(C(F)(F)F)c3)n2)cn1 [Example I-166],1000 to 10000 nM,100 to 1000 nM,
CC(C)(C)OC(=O)N1CC2CCC1CN2C(=O)Cn1cc(Nc2ncc(Cl)c(NCc3ccccc3)n2)cn1 (stereo not shown) [Example I-197],1000 to 10000 nM,100 to 1000 nM,
